The results in this text go back to article PMC11749787, “Natural flavonoid glycosides Chrysosplenosides I & A rejuvenate intestinal stem cell aging via activation of PPARγ signaling” (Life Medicine, 2024).

The target of this experiment is T1, PPARγ (peroxisome proliferator-activated receptor-gamma) (Homo sapiens, UniProt P37231).
T1 construct: gene PPARG; human PPARγ protein with a His tag (HY-P7999, MCE)
T1 sequence (P37231 1-505): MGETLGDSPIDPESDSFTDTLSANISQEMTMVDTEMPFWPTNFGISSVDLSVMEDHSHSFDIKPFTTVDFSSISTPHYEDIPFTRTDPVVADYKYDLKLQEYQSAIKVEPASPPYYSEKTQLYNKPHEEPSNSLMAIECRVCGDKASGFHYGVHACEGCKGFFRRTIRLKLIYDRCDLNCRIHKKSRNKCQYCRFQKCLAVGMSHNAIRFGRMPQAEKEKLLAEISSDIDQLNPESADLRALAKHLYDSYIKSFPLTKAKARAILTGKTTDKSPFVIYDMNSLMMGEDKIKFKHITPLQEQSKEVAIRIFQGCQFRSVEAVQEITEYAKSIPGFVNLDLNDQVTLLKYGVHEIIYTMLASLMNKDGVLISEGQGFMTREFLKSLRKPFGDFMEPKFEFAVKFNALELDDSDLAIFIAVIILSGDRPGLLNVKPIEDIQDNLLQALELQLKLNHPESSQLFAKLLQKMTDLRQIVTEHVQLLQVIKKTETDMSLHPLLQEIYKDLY
As to the kind of experiment: bio-layer interferometry (Octet K2, NTA biosensor, immobilized His-tagged PPARγ). It is filed as binding. For orientation: Biolayer interferometry detects binding as a change in optical thickness at a sensor tip.

What is called Kd is a measure of binding affinity in units of concentration. A higher Kd goes with weaker binding. `COc1cc(O[C@@H]2O[C@H](CO)[C@@H](O)[C@H](O)[C@H]2O)c(-c2oc3cc(OC)c(OC)c(O)c3c(=O)c2OC)cc1O` [CA1, Chrysosplenoside I] showed a Kd of 75.3 µM.

Take Chrysosplenoside A [CA2]: binding was put at a Kd of 32.4 µM.
